Here are results for one molecule from patent US6420558B1, “Aminopiperidine derivates as integrin αvβ3 antagonists” (Meiji Seika Kaisha, Ltd., priority 1998, dated 2002).

The target in series [1] is T1, integrin αvβ3 (vitronectin receptor purified from the human placenta) (Homo sapiens, UniProt P05106+P06756).
T1 construct: a vitronectin receptor (protein content: 118 μg/ml) purified from the human placenta; from tissue; host or cells: human placenta
The experiment in a line: αvβ3 binding assay (vitronectin-vitronectin receptor binding assay). As to conditions: vitronectin binding to human placenta vitronectin receptor; read-out: integrin αvβ3 antagonistic activity, IC50 value.

The target in series [2] is GP IIb/IIIa (Homo sapiens, UniProt P05106+P08514). The experiment in a line: GP IIb/IIIa antagonistic activity (method of Pharmacological Test 2 in WO 94/21599). It is filed as binding. How it is done: GP IIb/IIIa Antagonistic Activity and Human Platelet Aggregation Inhibitory Activity
Sequence of GP IIb/IIIa (P08514 32-887 limits assumed): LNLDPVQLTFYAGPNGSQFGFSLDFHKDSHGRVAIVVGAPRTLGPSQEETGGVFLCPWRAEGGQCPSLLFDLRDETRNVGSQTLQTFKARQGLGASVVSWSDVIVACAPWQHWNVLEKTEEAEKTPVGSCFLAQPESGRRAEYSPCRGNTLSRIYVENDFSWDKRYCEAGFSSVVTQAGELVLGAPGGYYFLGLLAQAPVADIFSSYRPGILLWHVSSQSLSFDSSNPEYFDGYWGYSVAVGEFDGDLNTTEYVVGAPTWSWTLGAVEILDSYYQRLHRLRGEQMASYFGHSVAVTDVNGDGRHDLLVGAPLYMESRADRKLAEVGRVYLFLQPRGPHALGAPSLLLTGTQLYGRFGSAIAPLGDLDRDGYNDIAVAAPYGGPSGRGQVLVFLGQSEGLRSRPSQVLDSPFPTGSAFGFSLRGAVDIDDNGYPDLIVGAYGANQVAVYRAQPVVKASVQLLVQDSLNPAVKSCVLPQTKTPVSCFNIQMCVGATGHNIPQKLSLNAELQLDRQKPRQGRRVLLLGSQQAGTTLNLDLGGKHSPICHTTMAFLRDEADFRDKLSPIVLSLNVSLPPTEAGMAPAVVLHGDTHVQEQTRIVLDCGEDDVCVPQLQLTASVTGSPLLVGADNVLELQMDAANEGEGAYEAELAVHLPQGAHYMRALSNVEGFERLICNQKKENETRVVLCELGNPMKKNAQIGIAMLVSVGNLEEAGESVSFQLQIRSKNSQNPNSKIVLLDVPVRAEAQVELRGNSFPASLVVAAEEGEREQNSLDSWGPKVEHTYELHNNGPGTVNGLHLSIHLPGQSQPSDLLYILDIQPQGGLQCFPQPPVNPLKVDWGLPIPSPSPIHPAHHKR
Sequence of GP IIb/IIIa (P08514 891-1039 limits assumed): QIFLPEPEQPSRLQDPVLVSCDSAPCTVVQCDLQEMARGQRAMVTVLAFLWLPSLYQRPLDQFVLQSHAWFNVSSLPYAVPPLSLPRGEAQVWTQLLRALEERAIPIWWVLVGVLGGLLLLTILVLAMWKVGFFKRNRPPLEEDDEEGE
Sequence of GP IIb/IIIa (P05106 27-788): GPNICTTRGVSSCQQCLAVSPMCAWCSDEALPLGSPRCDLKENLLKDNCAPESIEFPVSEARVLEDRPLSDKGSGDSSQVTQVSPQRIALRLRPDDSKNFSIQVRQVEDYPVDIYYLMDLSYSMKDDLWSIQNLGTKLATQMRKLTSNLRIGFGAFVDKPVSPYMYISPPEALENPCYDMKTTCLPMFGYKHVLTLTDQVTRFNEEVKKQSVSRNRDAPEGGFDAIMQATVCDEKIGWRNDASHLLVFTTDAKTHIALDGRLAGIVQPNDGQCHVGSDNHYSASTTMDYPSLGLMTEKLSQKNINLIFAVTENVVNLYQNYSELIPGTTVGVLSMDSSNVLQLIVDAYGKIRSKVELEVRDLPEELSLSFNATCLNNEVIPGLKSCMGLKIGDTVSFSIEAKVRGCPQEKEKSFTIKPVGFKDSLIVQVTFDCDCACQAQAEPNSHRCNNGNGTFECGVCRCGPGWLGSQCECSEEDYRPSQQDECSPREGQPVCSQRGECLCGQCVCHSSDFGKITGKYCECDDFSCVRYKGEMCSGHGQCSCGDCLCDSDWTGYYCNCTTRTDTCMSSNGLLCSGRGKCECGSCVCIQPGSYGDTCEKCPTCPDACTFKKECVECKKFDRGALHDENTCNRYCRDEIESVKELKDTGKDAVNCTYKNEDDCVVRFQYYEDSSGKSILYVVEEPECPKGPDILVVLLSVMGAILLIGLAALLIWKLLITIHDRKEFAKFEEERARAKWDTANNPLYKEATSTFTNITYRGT
GP IIb/IIIa antagonistic activity was measured for the compounds according to the present invention. The measurement of the GP IIb/IIIa antagonistic activity was carried out according to the method described in Pharmacological Test 2 in WO 94/21599.

Series [3] in a line: Acute toxicity test in mice. It is filed as in vivo. As to conditions: intravenously administered to three mice at a dose of 50 mg/kg. The procedure: The compound of Example 52 was intravenously administered to three mice at a dose of 50 mg/kg.

T1 sequence (P06756 31-889 limits assumed): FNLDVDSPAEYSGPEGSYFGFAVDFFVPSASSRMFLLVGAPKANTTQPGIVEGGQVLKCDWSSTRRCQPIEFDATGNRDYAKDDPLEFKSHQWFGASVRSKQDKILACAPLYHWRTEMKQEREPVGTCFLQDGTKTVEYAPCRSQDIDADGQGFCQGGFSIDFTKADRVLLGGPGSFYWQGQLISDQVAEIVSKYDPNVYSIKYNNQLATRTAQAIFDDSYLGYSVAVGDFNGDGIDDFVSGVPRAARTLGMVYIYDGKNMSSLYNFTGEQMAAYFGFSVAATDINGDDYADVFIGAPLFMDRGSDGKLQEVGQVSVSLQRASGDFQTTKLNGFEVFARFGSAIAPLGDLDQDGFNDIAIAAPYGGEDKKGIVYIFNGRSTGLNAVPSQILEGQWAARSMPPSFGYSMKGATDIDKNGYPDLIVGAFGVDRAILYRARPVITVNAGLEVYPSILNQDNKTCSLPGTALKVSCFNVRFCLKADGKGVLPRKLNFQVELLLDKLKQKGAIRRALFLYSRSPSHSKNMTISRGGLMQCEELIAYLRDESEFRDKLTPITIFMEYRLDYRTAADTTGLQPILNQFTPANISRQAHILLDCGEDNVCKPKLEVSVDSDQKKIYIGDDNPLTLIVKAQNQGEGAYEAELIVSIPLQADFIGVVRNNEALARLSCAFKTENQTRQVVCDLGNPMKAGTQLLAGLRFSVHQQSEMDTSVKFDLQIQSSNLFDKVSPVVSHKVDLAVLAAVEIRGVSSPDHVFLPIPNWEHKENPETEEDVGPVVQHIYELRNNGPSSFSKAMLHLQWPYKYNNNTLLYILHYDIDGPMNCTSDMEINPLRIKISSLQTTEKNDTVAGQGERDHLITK
T1 sequence (P06756 891-1048 limits assumed): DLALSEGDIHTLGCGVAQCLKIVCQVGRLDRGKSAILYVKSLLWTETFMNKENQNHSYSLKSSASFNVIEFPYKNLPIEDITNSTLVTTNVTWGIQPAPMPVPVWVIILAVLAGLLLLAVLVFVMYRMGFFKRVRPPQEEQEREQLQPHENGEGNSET
T1 sequence (P05106 27-788): as the sequence (P05106 27-788) above

For `O=C(NC[C@H](NS(=O)(=O)c1ccccc1)C(=O)O)c1ccc(N2CCC(NC3=NCCCN3)CC2)c(F)c1` [Example 52, (2S)-Benzenesulfonylamino-3-[3-fluoro-4-{4-(1,4,5,6-tetrahydropyrimidin-2-ylamino)piperidin-1-yl}-benzoylamino]propionic acid], the IC50 in series [1] and in series [2] was ≤ 1 nM throughout. Also, the “survival in acute toxicity test” value in series [3] is on record as “all the mice survived”. Besides, the “change in weight in acute toxicity test” value in series [3] (compared with solvent group) was “the same as a group of mice to which only a solvent had been administrered”.
